Results from paper PMC11416940, “Identification and characterization of a small molecule BFstatin inhibiting BrpR, the transcriptional regulator for biofilm formation of Vibrio vulnificus” (Frontiers in Microbiology, 2024).

Target: T1, BrpR
T1 construct: His6-tagged BrpR (brpR gene on pET-28a(+), expressed in E. coli BL21 (DE3))
Assay: microscale thermophoresis (MST) with labeled purified His6-BrpR; supported by EMSA inhibition of promoter DNA binding
Set-up: species or system Vibrio vulnificus

CCCNC(=O)CC(=O)Nc1cc(F)ccc1Cl [175C05, N1-(2-chloro-5-fluorophenyl)-N3-propylmalonamide]
Kd: 7.14 µM
